One experiment deals with T1, NLRP3 (Homo sapiens, UniProt Q96P20).
T1 construct: endogenous in cells; host or cells: THP-1 (human monocyte, PMA-differentiated, LPS-primed, nigericin-stimulated)
Put plainly: IC50 of NLRP3 inhibitors in reducing IL-1β secretion by THP-1 cells (PMA, LPS, nigericin; ELISA). The conditions noted are these: compound + nigericin 1 h. The experiment is classed as cell-based. As for the experimental part:
Test Example 1 Experiment on Detection of IC50 of NLRP3 Inhibitors in Reducing the Level of IL-1β Secretion by THP-1 Cells
In this experiment, we use the human monocyte THP-1 to study the inhibitory activity of NLRP3 inhibitor on the secretion of IL-Iβ by cells. Human THP-1 cells are treated with crotonol-12-tetradecanoate-13-acetate (PMA) to differentiate into mature macrophage models. Then, according to the two stages of inflammasome formation in cells (assembly and activation), the cells are stimulated with lipopolysaccharide (LPS) and nigericin in turn, ultimately promoting the extracellular release of IL-1β by THP-1 cells. The first stage of inflammasome formation involves stimulating cells with LPS (lipopolysaccharide), an agonist of the Toll-like receptor TLR4, to activate the expression of the inflammasome-associated proteins NLRP3, caspase 1, and pro-IL-1β, a precursor of IL-1β. The second stage of inflammasome formation involves the addition of the potassium ion carrier nigericin, which causes a series of membrane potential changes in THP-1 cells, destroys the cell membrane structure, causes the efflux of cellular potassium ions, further stimulates the oligomerization of NLRP3 monomers to form NLRP3 oligomers, and begins to recruit ASC and pro-caspase-1 to assemble the NLRP3 inflammasome complex containing a large amount of pro-caspase-1. The pro-caspase-1 on the activated NLRP3 inflammasome is enzymatically self-activated to form a large amount of active caspase-1. The activated caspase-1 further enzymatically promotes the conversion of pro-IL-1β into mature IL-1β that can be secreted.
(1) Cell suspensions were collected. The cells were centrifuged at 1000 rpm for 4 min, the supernatant was discarded, the cells were resuspended with 1 mL of test medium, and then the cell culture medium was gently pipetted up and down with a pipette and its tip to break up the cell aggregates. After counting the cells, the THP-1 cells were resuspended with complete RPMI medium 1640 containing PMA and seeded into 96-well plates and cultured in a 37° C., 5% CO2 incubator for 72 h.
(2) The culture medium was taken out from each well with an automatic plate washer dispenser EL406 and each well was rinsed twice with PBS. To each well, 96 μL of RPMI 1640 medium containing LPS was added. The cells were cultured in a 37° C., 5% CO2 incubator for 4 h.
(3) To each well, 2 μL of the compound and 2 μL of nigericin sodium salt were added, and the final compound concentration selected was 5000 nM, 1000 nM, 200 nM, 40 nM, 8 nM, 1.6 nM, 0.32 nM, 0 nM, respectively. The cells were cultured in a 37° C., 5% CO2 incubator for 1 h.
(4) An appropriate amount of supernatant was taken out, diluted 100 times, and the content of IL-1β in the supernatant was detected using Human IL-1 beta Valukine ELISA kit.

The subject of experiment [1] is IL-1β. Put plainly: Zymosan A-induced rat pericarditis model. The experiment is classed as in vivo, SD rats. Here is the method: Test Example 5 Zymosan A-Induced Rat Pericarditis Model Test
In this experiment, SD rats were used and 150 μL of a mixture of 50 mg/mL ZymosanA and normal saline was injected into the pericardial cavity to induce a rat pericarditis model and conduct a pharmacodynamic observation experiment. The day of modeling was designated as Day 1. The animals were weighed and randomly divided into groups one day before modeling, namely, G1 normal group, G2 model group, G3 compound 062-10 mg/kg group, G4 compound 062-30 mg/kg group, G5 colchicine-100 μg/kg group, with 7+1* animals in each group (one extra animal was reserved for each group, considering that animals may die during model establishment). After the model was established, oral administration began, once a day, for 7 consecutive days. At the end of the experiment, the animals were euthanized, the muscles were cut open at the third and fourth rib regions to expose the heart, the pericardium was carefully lifted with forceps, and as much pericardial effusion (if any) as possible was extracted with a 1 ml syringe. The pericardial effusion was centrifuged at 5000 rpm at 4° C. for 5 min, and the supernatant was frozen at −80° C. for later detection of IL-1β levels. After the pericardial effusion was collected, the heart was perfused and removed (while ensuring the integrity of the pericardium), fixed with 10% formalin for subsequent pathological examination.

For experiment [2], the system named is IL-1β. Put plainly: Mouse acute peritonitis model (LPS/ATP), IL-1β in peritoneal lavage fluid and blood. Format: in vivo, C57BL/6 mice. The conditions noted are these: 10 mg/kg oral; for inhibition at 10 mg/kg: Mus musculus, vs vehicle group. As for the experimental part: Test Example 2: Mouse Acute Peritonitis Model Evaluation Experiment
Male C57BL/6 mice were orally administered with a 10 mg/kg dose of the test compound or control vehicle, and then injected intraperitoneally with 1 μg of E. coli 055: B5 ultrapure lipopolysaccharide (LPS) suspension 1 h later, followed by an intraperitoneal injection of 0.5 ml of 30 mM disodium salt ATP suspension (in PBS, the pH of the ATP solution was adjusted to 7.2 before injection) 2 h later. After 30 min, all animals would be euthanized by carbon dioxide, and blood and peritoneal lavage fluid would be collected. The peritoneal lavage fluid was kept at 4° C.
Preparation of peritoneal lavage fluid: The peritoneal cavity would be lavaged with ice-cold PBS (3 mL) containing 25 U/mL heparin and 10% heat-inactivated FBS. Prior to use, one tablet of the protease inhibitor mixture was added per 50 mL of buffer. The collected lavage fluid would be centrifuged (centrifugation conditions: 1000g, 4° C., 10 min) to remove cells and cell debris, and the clarified samples would be stored at −80° C. for measurement of cytokine IL-1β.
The mouse IL-1β/IL-1F2 DuoSet ELISA kit (R&D Systems) was used to measure the changes in IL-1β cytokine levels in peritoneal lavage fluid and serum. By comparing with the Vehical group, the inhibition rate of the compound on IL-1β was calculated.

Experiment [3] has as its system MSU-induced acute rat gouty arthritis model. Put plainly: MSU-induced rat acute gouty arthritis model. The conditions noted are these: FIG. 1. The experiment is classed as in vivo, SD rats. As for the experimental part: Test Example 3 MSU-Induced Rat Gouty Arthritis Model Evaluation Test
In this test, male SD rats were used to establish an acute gouty arthritis model by injecting 64 mg/mL sodium urate (MSU) crystal suspension into the right hind ankle joint cavity of the rats. The animals were randomly divided into normal control group, model control group, different dose groups of test compound, 7 rats in each group. The compound group was orally administered with the compound 1 h before and after modeling, and the normal control group and model control group were given an equal amount of vehicle. The foot circumference and foot diameter were measured before and 24 h after modeling.

Where two headings read alike, the source gives them in different places.

Data on one molecule can be found in patent US20260216182A1, “PYRIDAZINE NLRP3 INHIBITOR COMPOUND, PHARMACEUTICAL COMPOSITION, AND PREPARATION METHOD THEREFOR AND USE THEREOF” (CHANGCHUN GENESCIENCE PHARMACEUTICAL CO., LTD., priority 2022, published 2026).

T1 sequence (Q96P20 whole entry): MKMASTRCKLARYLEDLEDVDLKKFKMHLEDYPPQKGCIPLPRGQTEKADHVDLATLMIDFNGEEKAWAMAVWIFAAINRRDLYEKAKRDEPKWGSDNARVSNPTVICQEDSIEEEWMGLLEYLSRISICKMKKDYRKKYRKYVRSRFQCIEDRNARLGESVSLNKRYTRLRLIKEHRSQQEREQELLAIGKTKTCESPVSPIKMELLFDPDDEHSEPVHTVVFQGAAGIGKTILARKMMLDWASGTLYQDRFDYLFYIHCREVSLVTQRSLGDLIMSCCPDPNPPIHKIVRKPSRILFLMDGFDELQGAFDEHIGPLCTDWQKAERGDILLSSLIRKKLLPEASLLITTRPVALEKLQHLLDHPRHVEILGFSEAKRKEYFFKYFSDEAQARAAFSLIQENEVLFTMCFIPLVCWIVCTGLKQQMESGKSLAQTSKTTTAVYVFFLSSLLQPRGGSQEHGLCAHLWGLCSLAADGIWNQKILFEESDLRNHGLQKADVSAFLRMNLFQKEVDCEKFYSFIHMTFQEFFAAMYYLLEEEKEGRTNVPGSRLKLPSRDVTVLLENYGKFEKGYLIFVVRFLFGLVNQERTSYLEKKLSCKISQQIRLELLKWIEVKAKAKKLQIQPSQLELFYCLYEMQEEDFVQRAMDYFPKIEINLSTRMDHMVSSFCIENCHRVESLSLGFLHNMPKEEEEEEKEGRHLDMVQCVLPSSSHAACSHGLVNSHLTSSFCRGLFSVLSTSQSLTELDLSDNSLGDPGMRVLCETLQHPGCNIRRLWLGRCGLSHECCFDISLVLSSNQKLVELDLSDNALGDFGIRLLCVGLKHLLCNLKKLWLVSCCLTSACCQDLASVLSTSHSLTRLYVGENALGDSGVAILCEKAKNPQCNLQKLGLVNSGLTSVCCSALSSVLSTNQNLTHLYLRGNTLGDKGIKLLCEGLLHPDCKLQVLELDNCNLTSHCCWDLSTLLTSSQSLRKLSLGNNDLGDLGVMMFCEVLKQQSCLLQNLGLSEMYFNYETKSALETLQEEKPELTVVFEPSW

On to `CC#Cc1ccc2c(-c3ccc(Cl)cc3O)nnc(NC[C@H](O)CO)c2c1` [Compound 062, (S)-3-((4-(4-chloro-2-hydroxyphenyl)-7-(prop-1-yn-1-yl)phthalazin-1-yl)amino) propan-1,2-diol], for which the IC50 (as a rule, the concentration that inhibits the measured activity by half) at NLRP3 worked out at 9.7 nM. The “degree of pericardial inflammation” value in the experiment with IL-1β [1] (10 and 30 mg/kg oral once a day, 7 days, FIG. 3) is “improved the degree of pericardial inflammation”. Besides, the “production of IL-1β in the pericardium and pericardial effusion” value in the experiment with IL-1β [1] (10 and 30 mg/kg oral once a day, 7 days, FIG. 4) is “significantly inhibited the production of IL-1β in the pericardium and pericardial effusion”. For the same molecule, in the experiment on IL-1β [1] (colchicine 100 μg/kg), the “effect compared with colchicine” value is reported as “comparable to that of colchicine”. Besides, the “inhibitory effect on IL-1β in the in vivo animal model (in words)” value in the experiment on IL-1β [2] is given as “Conclusion: Some compounds showed inhibitory effects on IL-1β in the in vivo animal model evaluation experiment, among which compound 062 had the most significant inhibitory effect”. Also, the inhibition – broadly, the percentage by which the read-out fell short of the control – at 10 mg/kg was determined as 94% in the experiment on IL-1β [2] (read-out: IL-1β Peritoneal lavage fluid (inhibition rate)) and 96% in the experiment with IL-1β [2] (read-out: IL-1β Plasma (inhibition rate)). Moreover, the “effect on ankle joint swelling compared with control compound” value in experiment [3] was “significantly better than that of the control compound”. In experiment [3] (oral, 1 h before and after modeling, 24 h after modeling), the ankle joint swelling entry is recorded as “dose-dependent improvement in ankle joint swelling”.
